Experimental data reported in patent US10881614B2, “Nicotinamide compositions and the therapeutic use thereof” (APeT Holding B.V., priority 2011, dated 2021).

Columns and labels:
[1] = tested on: subjects suspected to suffer from tryptophan malabsorption; settings: 20 mg/kg/day in six doses, three subjects; cited from earlier work
[2] = tested on: patients with epilepsy, behavioral and nutritional abnormalities; test: Clinical observations under oral nicotinamide therapy; type: in vivo, human

## NC(=O)c1cccnc1 [nicotinamide, pyridine-3-carboxamide]
[1]
  effect on behavioral and psychiatric illnesses: beneficial effect
[2]; nicotinamide therapy
  indican in plasma and urine: normalization
[2]; oral nicotinamide
  behavioral, neurological and psychiatric abnormalities: Remarkable improvement up to normalization
  intestinal tryptophan absorption: stimulates intestinal tryptophan absorption
[2]; patients with epilepsy, behavioral and nutritional abnormalities hardly improved by antiepileptic, antidepressant and other drugs
  clinical picture under nicotinamide therapy: normalized in one or two months
